Experimental data: US20070274947A1, “Antisense Oligonucleotides Directed to Ribonucleotide Reductase R1 and Uses Thereof in the Treatment of Cancer” (priority 2003, published 2007)

Experiments:
[1] = test system: HT-29 human colon cancer cells; test: HT-29 colon tumor growth in CD-1 nude mice; assay type: in vivo; conditions: SEQ ID NO:1 10 mg/kg every other day
Procedure: A. HT-29 human colon cancer cells (3×10^6 cells in 100 μl of PBS) were subcutaneously injected into the right flank of 6-7 weeks old female CD-1 nude mice. After the size of tumor reached an approximate volume of 50 mm^3, 4 days post tumor cell injection, SEQ ID NO:1 was administered by bolus infusion into the tail vein every other day at 10 mg/kg. Control animals received saline alone for the same period. Antitumor effect of SEQ ID NO:1 was further compared to that of mitomycin C alone or that of SEQ ID NO:1 in combination with mitomycin C. Mitomycin C was administered intravenously at days 4, 11 and 18 with a dose of 3.5 mg/kg/week, one hour after the treatments with SEQ ID NO:1. All treatments were stopped at day 22. A day after the last treatment, tumors were excised from the animals and their weights were measured (FIG. 13A). […] The delay in tumor growth achieved with SEQ.
B. HT-29 human colon cancer cells (3×10^6 cells in 100 μl of PBS) were subcutaneously injected into the right flank of 5-6 week old female CD-1 nude mice. After the size of tumor reached an approximate volume of 100 mm^3, 7 days post tumor cell injection, SEQ ID NO:1 was administered by bolus infusion into the tail vein every other day at 10 mg/kg. Control animals received saline alone for the same period. Antitumor effect of SEQ ID NO:1 was further compared to that of CPT-11 alone or that of SEQ ID NO:1 in combination with CPT-11. CPT-11 was administered intraperitoneally for 5 days in a row from day 7-12 with a dose of 20 mg/kg in 100 μl saline. All treatments were stopped at day 32. A day after the last treatment, tumors were excised from the animals and their weights were measured (FIG. 13B).

[2] = test system: MDA-CDDP-S4 human in vivo-selected Cisplatin-resistant breast adenocarcinoma cells; test: Cisplatin-resistant breast adenocarcinoma MDA-CDDP-S4 growth in SCID mice; conditions: SCID mice, fat pad; SEQ ID NO:1 10 mg/kg every other day; Cisplatin 4 mg/kg, Taxol 10 mg/kg i.v. weekly for three weeks
Procedure: MDA-CDDP-S4 human in vivo-selected Cisplatin-resistant breast adenocarcinoma cells MDA231/CDDPs4) (4×10^6 cells in 100 μl of PBS) were injected into the fat pad (inside of right leg) of 6-7 weeks old female SCID mice. After the size of tumor reached an approximate volume of 100 mm^3, 7-9 days post tumor cell injection, SEQ ID NO:1 was administered by bolus infusion into the tail vein every other day at 10 mg/kg. Control animals received saline alone for the same period. Antitumor effect of SEQ ID NO:1 was further compared to that of Cisplatin or Taxol alone (FIG. 14A) and in combination as indicated in the FIGS. 14B, 14C and 14D. Cisplatin was administered intravenously once a week for three weeks at a dose of 4 mg/kg. Taxol was administered intravenously once a week for three weeks at a dose of 10 mg/kg. Antitumor activities were estimated by the inhibition of tumor volume, which was measured with caliper and each point represents mean tumor volume calculated from 10 animals per experimental group (FIG. 14C). At the end of the study animals were sacrificed, tumor weights taken and mean tumor weights are indicated. […] As expected, treatment with Cisplatin during the same period was ineffective against Cisplatin-resistant tumor.

[3] = test system: MDA-MB435-To.1 human Taxol-resistant breast adenocarcinoma cells; test: Taxol-resistant breast adenocarcinoma MDA-MB435-To.1 growth in SCID mice; assay type: in vivo
Procedure: MDA-MB435-To.1 human Taxol-resistant breast adenocarcinoma cells (4×10^6 cells in 100 μl of PBS) were injected into the fat pad (inside of right leg) of 6-7 weeks old female SCD mice. After the size of tumor reached an approximate volume of 100 mm^3, 20 days post tumor cell injection, SEQ ID NO:1 was administered by bolus infusion into the tail vein every other day at 10 mg/kg 15 times. Control animals received saline alone for the same period. Antitumor effect of SEQ ID NO:1 was further compared to that of Cisplatin or Taxol alone (FIG. 15A). Cisplatin was administered intravenously once a week for four weeks at a dose of 4 mg/kg. Taxol was administered intravenously once a week for four weeks at a dose of 20 mg/kg. Antitumor activities were estimated by the inhibition of tumor volume, which was measured with caliper (FIG. 15B). Each point represents mean tumor volume calculated from 9-10 animals per experimental group. […] As expected, treatment with Taxol during the same period was ineffective against Taxol-resistant tumor.
MDA-MB435-To.1 human Taxol-resistant breast adenocarcinoma cells (4×10^6 cells in 100 μl of PBS) were injected into the fat pad (inside of right leg) of 6-7 weeks old female CB-17 SCID mice. After the size of tumor reached an approximate volume of 100 mm^3, 17 days post tumor cell injection, SEQ ID NO:1 was administered by bolus infusion into the tail vein every other day at 10 mg/kg. Control animals received saline alone for the same period. Antitumor effect of SEQ ID NO:1 was compared to that of Cisplatin alone and in combination. Cisplatin was administered intravenously once a week for four weeks at a dose of 4 mg/kg. Antitumor activities were estimated by the inhibition of tumor volume, which was measured with caliper (FIG. 15B). Each point represents mean tumor volume calculated from 10 animals per experimental group. At the end of the study the animals were sacrificed and tumors weighed (FIG. 15C).

[4] = test system: DU145 human prostatic cancer cells; test: DU145 prostate tumor growth in SCID mice; assay type: in vivo
Procedure: DU145 human prostatic cancer cells (1×10^7 cells in 100 μl of PBS) were subcutaneously injected into the right flank of 6-7 week old male SCID mice. After the size of the tumors reached an approximate volume of 50 mm^3, 13 days post tumor cell injection, SEQ ID NO:1 was administered by bolus infusion into the tail vein every other day at 10 mg/kg. Control animals received saline alone for the same period. Treatments lasted for 30 days thereafter. Antitumor activities were estimated by the inhibition of tumor volume, which was measured with a caliper on nine different occasions over 30-day period. Each point represents mean tumor volume calculated from 5 animals per experimental group.
In both experiments, DU145 human prostatic cancer cells (1×10^7 cells in 100 μl of PBS) were subcutaneously injected into the right flank of 6-7 weeks old male SCID mice. After the size of tumor reached an approximate volume of 50 mm^3, 13 (upper panel) or 11 (lower panel) days post tumor cell injection, SEQ ID NO:1 was administered by bolus infusion into the tail vein every other day at 10 mg/kg 15 times (upper panel) or 14 times (lower panel), respectively. Control animals received saline alone for the same period. Antitumor effect of SEQ ID NO:1 was further compared to that of mitoxantrone (novantrone®) alone or in combination. Mitoxantrone was administered intravenously once at the beginning of the treatments at a dose of 2 mg/kg (upper panel) or once a week for four weeks at a reduced dose of 0.8 mg/kg (lower panel). All treatments were stopped at day 42 (upper panel) or 38 (lower panel), respectively. A day after the last treatment, tumors were excised from the animals and their weights were measured.

[5] = test system: Human taxol-resistant promyelocytic leukemia cells (HL-60); test: Taxol-resistant promyelocytic leukemia (HL-60) growth in SCID mice; assay type: in vivo; conditions: SEQ ID NO:1 10 mg/kg i.v. every other day, taxol 10 mg/kg i.p. once a week
Procedure: Human taxol-resistant promyelocytic leukemia cells (HL-60) (7×10^6 cells in 100 μl of PBS) were injected into the right flank of 6-7 weeks old female SCID mice. After the size of tumor reached an approximate volume of 100 mm^3, 10 days post tumor cell injection, SEQ ID NO:1 was administered by bolus infusion into the tail vein every other day at 10 mg/kg. Control animals received saline alone for the same period. The anti-tumor effect of SEQ ID NO:1 was further compared to that of taxol. Taxol was administered i.p. once a week at a dose of 10 mg/kg. Anti-tumor activity was estimated by the inhibition of tumor volume, which was measured with caliper (FIG. 17A). Each point represents mean tumor volume calculated from 10 animals per experimental group. In addition animals were sacrificed and tumor weights taken at the end of the study.

[6] = first experiment, start 20 days post injection, SEQ ID NO:1 10 mg/kg 15 times, Cisplatin 4 mg/kg, Taxol 20 mg/kg weekly for four weeks

Compound: CO[C@@]12[C@H](COC(N)=O)C3=C(C(=O)C(C)=C(N)C3=O)N1C[C@@H]1N[C@@H]12 [mitomycin C, reference compound]
- tumor weight / tumor growth ([1]; FIG. 13A, mitomycin C 3.5 mg/kg/week i.v., stopped day 22): inhibitory effects

Compound: CCc1c2c(nc3ccc(OC(=O)N4CCC(N5CCCCC5)CC4)cc13)-c1cc3c(c(=O)n1C2)COC(=O)[C@]3(O)CC [CPT-11, Irinotecan, reference compound]
- tumor weight / tumor growth ([1]; FIG. 13B, CPT-11 20 mg/kg i.p. 5 days, stopped day 32): inhibitory effects

Compound: N.N.[Cl][Pt][Cl] [Cisplatin, reference compound]
- tumor weight / tumor growth [2]: ineffective
- tumor weight / tumor growth [3, 6]: inhibitory effects
- tumor weight / tumor growth ([3]; second experiment, CB-17 SCID mice, start 17 days post injection, SEQ ID NO:1 10 mg/kg every other day, Cisplatin 4 mg/kg weekly): inhibitory effects

Compound: O=C1c2c(O)ccc(O)c2C(=O)c2c(NCCNCCO)ccc(NCCNCCO)c21 [mitoxantrone, reference compound]
- tumor weight / tumor growth ([4]; lower panel FIG. 2, SEQ ID NO:1 10 mg/kg every other day 14 times, mitoxantrone 0.8 mg/kg once a week for four weeks): delay of tumor growth
- tumor weight / tumor growth ([4]; upper panel FIG. 2, SEQ ID NO:1 10 mg/kg every other day 15 times, mitoxantrone 2 mg/kg i.v. once, vs saline): inhibitory effects

Compound: CC(=O)O[C@H]1C(=O)[C@@]2(C)[C@H]([C@H](OC(=O)c3ccccc3)[C@]3(O)C[C@H](OC(=O)[C@H](O)[C@@H](NC(=O)c4ccccc4)c4ccccc4)C(C)=C1C3(C)C)[C@]1(OC(C)=O)CO[C@@H]1C[C@@H]2O [Taxol, Paclitaxel, reference compound]
- tumor weight / tumor growth [2]: inhibitory effects
- tumor weight / tumor growth [3, 6]: ineffective
- tumor growth / tumor weight [5]: no effect on tumor growth or weight
